Results as given in US11266642B2, “Small molecule inhibitors of HLA-DR3 binding for treating autoimmune thyroiditis” (ICAHN SCHOOL OF MEDICINE AT MOUNT SINAI, priority 2015, dated 2022).
Where two headings read alike, the source gives them in different places.

Tested on: Interferon (IFN gamma)
Test: Cytokine production by immunized mice splenocytes (Milliplex/Luminex)
Format: cell-based
Conditions: Mus musculus, Splenocyte, 1 μM compound, 48 hours
Method: Immunized mice splenocytes were incubated with 1 μM compound Ia together with human thryroglobulin (40 μg/mL) or Tg.2098 (20 μg/mL) to assess the inhibition of cytokines production by compound Ia. […] Milliplex mouse cytokines/chemokine magnetic panel (Catalog no. MCYTOMAG-70K, EMD Millipore Corporation, Billerica, Mass.) was used to assay the cytokines. Splenocytes were plated at 2×10^6 cells per well in 500 uL of medium (RPMI/10% FBS). Supernatants were collected 48 hours after stimulation with hTg or peptides and stored at −80° C. until the assay was performed. To begin the assay, the 96-well plate supplied in the kit was washed with the wash buffer supplied and the plate was shaken for 10 min at room temperature. Standards and quality controls were added, followed by the samples. The pre-mixed beads (IFN gamma, IL-2, IL-4, IL-10) were sonicated and vortexed, and then added to the wells. After shaking the plate overnight at 4° C., the plate was washed twice with wash buffer. Detection antibodies were added for 1 h at room temperature, and Streptavidin-Phycoerythrin was added for 30 min at room temperature. The plate was washed twice and sheath fluid was added to resuspend the beads for 5 min before reading in Luminex 200 with xPONENT software (Luminex, Austin, Tex.) […]

COc1ccc2cc1Oc1ccc(cc1)C[C@H]1c3c(cc4c(c3Oc3cc5c(cc3OC)CCN(C)[C@@H]5C2)OCO4)CCN1C [Compound Ia, cepharanthine]
inhibition at 1 µM (Tg.2098 20 μg/mL, p<0.0001, read-out: Interferon inhibition, Tg.2098 stimulation): 48.8% | inhibition at 1 µM (hTg 40 μg/mL, p=0.002, read-out: Interferon inhibition, hTg stimulation): 38.7%
